The IC50 is the midpoint of a concentration-inhibition curve.

Active and inactive are the calls of the source. No cut-off for these calls is given here. Starred links: 1 amine or outer side, 2 acyl side, 3 side chain; linkers in the order of their positions; H or OH if unused. Positions of bridges follow the written chain, without caps; N, C: chain ends. Non-standard residues stand in square brackets, D forms with d. Residues, ends and D or L forms follow the SMILES beside them. NMehTyr = CN[C@@H](CCc1ccc(O)cc1)C(=O)O; X1 = NC(=O)N[C@H](CCCCN[*:1])C(=O)[*:2]; hTyr = N[C@@H](CCc1ccc(O)cc1)C(=O)O; NMeA = CN[C@@H](C)C(=O)O; CO = O=C([*:1])[*:2]

In assay [1] the target is T1, Carboxypeptidase A1 (Homo sapiens, UniProt P15085).
T1 sequence (P15085 whole entry): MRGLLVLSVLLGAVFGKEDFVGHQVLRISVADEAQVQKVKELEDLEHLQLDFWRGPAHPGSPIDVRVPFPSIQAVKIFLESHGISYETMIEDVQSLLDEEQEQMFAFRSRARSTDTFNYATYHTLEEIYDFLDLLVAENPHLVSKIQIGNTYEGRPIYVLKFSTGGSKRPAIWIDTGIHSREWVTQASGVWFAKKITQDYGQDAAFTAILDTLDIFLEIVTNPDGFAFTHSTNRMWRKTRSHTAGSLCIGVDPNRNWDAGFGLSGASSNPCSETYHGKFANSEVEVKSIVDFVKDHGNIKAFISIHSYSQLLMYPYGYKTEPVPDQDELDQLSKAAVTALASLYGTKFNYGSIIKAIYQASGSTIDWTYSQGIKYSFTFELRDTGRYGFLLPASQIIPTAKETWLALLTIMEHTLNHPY
In words: Inhibition of carboxypeptidase A (unknown origin) assessed as reduction in degradation of N-(4-methoxyphenylazoformyl)-Phe-OH using N-(4-methoxyphenylazoformyl)-Phe-OH as substrate.

Assay [2] concerns the target T2, Carboxypeptidase A1 (Homo sapiens) (UniProt P15085).
T2 sequence (whole entry): T1 sequence (P15085 whole entry)
Nature of the assay: Inhibition of carboxypeptidase A (unknown origin) assessed as reduction in degradation of N-(4-methoxyphenylazoformyl)-Phe-OH at > 10 uM using N-(4-methoxyphenylazoformyl)-Phe-OH as substrate. The note with it: dose microM >10.

Assay [3] concerns the target T1, Carboxypeptidase A1. Nature of the assay: Inhibition of carboxypeptidase A (unknown origin).
Assay [4] addresses T3, Carboxypeptidase A1 (Bos taurus, UniProt P00730).
T3 sequence (P00730 whole entry): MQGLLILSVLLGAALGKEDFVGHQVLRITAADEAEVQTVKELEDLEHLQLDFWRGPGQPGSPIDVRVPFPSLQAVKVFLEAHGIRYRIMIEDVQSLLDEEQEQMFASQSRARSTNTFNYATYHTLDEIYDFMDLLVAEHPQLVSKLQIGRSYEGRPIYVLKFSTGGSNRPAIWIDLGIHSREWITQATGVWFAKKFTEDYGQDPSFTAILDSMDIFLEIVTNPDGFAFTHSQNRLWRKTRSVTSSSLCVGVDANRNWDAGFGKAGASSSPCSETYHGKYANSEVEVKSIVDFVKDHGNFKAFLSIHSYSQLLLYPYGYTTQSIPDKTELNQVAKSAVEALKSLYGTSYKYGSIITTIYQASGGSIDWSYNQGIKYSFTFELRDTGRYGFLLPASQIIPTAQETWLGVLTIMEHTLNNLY
Nature of the assay: Inhibition of carboxypeptidase A in bovine pancreas assessed as reduction in hydrolysis of hippuryl-L-phenylalanine using hippuryl-L-phenylalanine as substrate measured after 2 hrs. Type of assay: tissue-based.

The target in assay [5] is T1, Carboxypeptidase A1. Nature of the assay: Inhibition of carboxypeptidase A (unknown origin) assessed as reduction in hydrolysis of hippuryl-L-phenylalanine using hippuryl-L-phenylalanine as substrate.

In the case of `CC(C)[C@@H]1NC(=O)[C@H](NC(=O)N[C@@H](CCCNC(=N)N)C(=O)O)CCCCNC(=O)[C@H](Cc2ccccc2)NC(=O)[C@H](C)N(C)C(=O)[C@H](CCc2ccc(O)cc2)NC1=O` [ANABAENOPEPTIN B] ({Arg-CO}-[dK]V[hTyr][NMeA]F; lactam 1-C), at Carboxypeptidase A1 [1], the IC50 is > 24 µM. For `CC[C@H](C)[C@@H]1NC(=O)[C@H](CCc2ccc(O)cc2)N(C)C(=O)[C@H](CCc2ccc(O)cc2)NC(=O)[C@H](C(C)C)NC(=O)[C@H](NC(=O)N[C@@H](CCCNC(=N)N)C(=O)O)CCCCNC1=O` [ANABAENOPEPTIN 908] ({Arg-CO}-[dK]V[hTyr][NMehTyr]I; lactam 1-C), the inhibition result in assay [2] is “Active”. Besides, the values for the IC50 on Carboxypeptidase A1 [1] and on Carboxypeptidase A1 [3] were > 11 µM and > 22 µM, respectively. As to `CC[C@H](C)[C@@H]1NC(=O)[C@H](NC(=O)N[C@@H](CCCNC(=N)N)C(=O)O)CCCCNC(=O)[C@H](Cc2ccccc2)NC(=O)[C@H](C)N(C)C(=O)[C@H](CCc2ccc(O)cc2)NC1=O` [ANABAENOPEPTIN F] ({Arg-CO}-[dK]I[hTyr][NMeA]F; lactam 1-C), the IC50 at Carboxypeptidase A1 [1] is > 24 µM. `CC[C@H](C)[C@@H]1NC(=O)[C@H](NC(=O)N[C@@H](CCCNC(=N)N)C(=O)O)CCCCNC(=O)[C@H]([C@@H](C)CC)NC(=O)[C@H](CCc2ccc(O)cc2)N(C)C(=O)[C@H](CCc2ccc(O)cc2)NC1=O` [ANABAENOPEPTIN H] ({Arg-CO}-[dK]I[hTyr][NMehTyr]I; lactam 1-C): at Carboxypeptidase A1 [1], the IC50 came to 10.2 µM. `CC[C@H](C)[C@H](NC(=O)N[C@@H]1CCCCNC(=O)[C@H]([C@@H](C)CC)NC(=O)[C@H](CCc2ccc(O)cc2)N(C)C(=O)[C@H](CCc2ccc(O)cc2)NC(=O)[C@H](C(C)C)NC1=O)C(=O)O` [ANABAENOPEPTIN T] ({Ile-CO}-[dK]V[hTyr][NMehTyr]I; lactam 1-C): the IC50 at Carboxypeptidase A1 [4] was found to be 2.3 µM.

In the case of `CC[C@H](C)[C@@H]1NC(=O)[C@H](NC(=O)N[C@@H](Cc2ccc(O)cc2)C(=O)O)CCCCNC(=O)[C@H]([C@@H](C)CC)NC(=O)[C@H](CCc2ccc(O)cc2)N(C)C(=O)[C@H](CCc2ccc(O)cc2)NC1=O` [ANABAENOPEPTIN G] ({Tyr-CO}-[dK]I[hTyr][NMehTyr]I; lactam 1-C), the IC50 at Carboxypeptidase A1 [5] worked out at 0.002 µM.

Regarding `CC(C)[C@@H]1NC(=O)[C@H](NC(N)=O)CCCCNC(=O)[C@H](Cc2ccccc2)NC(=O)[C@H](C)N(C)C(=O)[C@H](CCc2ccc(O)cc2)NC1=O` (cyclo(F[X1]V[hTyr][NMeA])), the IC50 on Carboxypeptidase A1 [1] turned out to be 6.74 µM.
